By CC50 is commonly meant the concentration giving 50% cytotoxicity. A higher CC50 goes with lower toxicity to the cells. Usually EC50 stands for the concentration that produces a half-maximal response. Low values mean higher potency in that assay, high ones lower potency in that assay.

Common to all, as to type: cell-based
A short description of series [1]: Cytotoxicity in HepG2 cells, Resazurin assay. The settings on record: human, incubated 4 days, Resazurin viability. Background: Resazurin is reduced to fluorescent resorufin, in cell work by metabolically active cells.
In series [2] the test system is HBV. Description: Anti-HBV activity, HepG2.117 inducible HBV producing cell line (Tet-off), intracellular HBV DNA by realtime PCR. Particulars: Hepatitis B virus, 72 h, HepG2.117 cells, 3 days of treatment.
Series [3] relates to HBV. Description: Anti-HBV activity, HepG2.2.15 stable transfected cell line, HBV DNA from secreted virions by realtime PCR. Particulars: Hepatitis B virus, 144 h, HepG2.2.15 cells, 6 days of treatment.

On to `Cc1cc(NC(=O)c2cccc(S(=O)(=O)N[C@H](C)C(N)=O)c2)ccc1F` [Compound 22], for which, in series [1], the CC50 at 4 days is more than 25 µM. Also, the EC50 amounted to 0.5 µM in the series on HBV [2] and 0.55 µM in the series with HBV [3].

On to `CC(=O)CC(C)NS(=O)(=O)c1cccc(C(=O)Nc2ccc(F)c(C)c2)c1` (stereo not drawn) [Compound 29], for which, in series [1], the CC50 at 4 days was more than 25 µM. Besides, the EC50 in the series with HBV [2] was found to be 0.23 µM; in the series on HBV [3], 0.19 µM.
